The series can be described thus: gradient 5% acetonitrile 3 min, to 50% in 2 min, to 85% in 15 min, held 3 min, 100 µL/min. To be noted: column: Zorbax Extend-C18 2.1 x 50 mm; eluents: water / acetonitrile, 0.1% formic acid. In a few lines: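 Pure standards were analyzed in mixtures of ~100 molecules using HPLC coupled to a quadrupole time-of-flight mass spectrometer, in both positive and negative ionization mode. Separation used a Zorbax Extend-C18 column (2.1 × 50 mm, 1.8 μm) at 100 μL/min, with water and acetonitrile each containing 0.1% formic acid. Dead and dwell volumes were 40 μL and 900 μL, and data were collected over 3 months. Retention time was read from computationally picked adduct peaks, each inspected manually.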
The compound `COc1ccc(C)cc1Nc1c(-c2nc(C)no2)cnc2nc(C)ccc12` came in with an RP-LC retention time of 764 s. Turning to `COC(=O)c1[nH]c(C)c(C(=O)C(C)N(CC2CCCCC2)C(=O)c2ccc(F)cc2)c1C` (centres undefined), the RP-LC retention time amounted to 1080 s. `Cc1nc(Nc2ccc(F)cn2)sc1C(=O)N1CCN(c2ccccn2)CC1` yielded an RP-LC retention time of 602 s. In the case of `CN(C)S(=O)(=O)c1ccc(C(=O)Nc2nc(-c3coc4ccccc34)cs2)cc1`, the RP-LC retention time came to 1030 s. The figure for `O=C(Cn1cccc1-c1nc(-c2ccccc2)no1)Nc1ccc2c(c1)OCCO2` is 1090 s. Compound `Cc1ccc(C)c(N2CCN(c3ccnc(SCC(=O)Nc4ccccc4)n3)CC2)c1` returned an RP-LC retention time of 860 s. In turn, `Cc1cc(C)n(CCC(=O)N2C[C@H]3C[C@H](C2)[C@H]2CCCC(=O)N2C3)n1` gave an RP-LC retention time of 600 s.

The compound `COc1ccc(-c2nnc(SCC(=O)Nc3ccc(C)cc3Br)o2)cc1` gave an RP-LC retention time of 986 s. For `O=C(NCc1ccccc1)Nc1ccc(-c2nc(-c3ccccc3)co2)cc1`, the RP-LC retention time worked out at 1070 s. In turn, `Cc1ccc(F)cc1S(=O)(=O)N1CCN(c2nc3ccncc3n(C)c2=O)CC1` displayed an RP-LC retention time of 586 s.

`O=C(CSC1=Nc2ccccc2N=C(c2ccc(F)cc2)C1)NC1CCCC1` came in with an RP-LC retention time of 1130 s. Regarding `CCN(C(=O)CC(=O)OC)c1nc(-c2ccc(C)cc2)cs1`, the RP-LC retention time turned out to be 1070 s. `Cc1nnc2ccc(N3CCCC3)nn12` gave an RP-LC retention time of 726 s. Compound `CCOc1ccc(CNC(=O)C2CCCN(c3ccc(=O)n(-c4ccc(C)c(Cl)c4)n3)C2)cc1` (centres undefined) displayed an RP-LC retention time of 830 s. The figure for `Cc1ccc(C)c(N2CCN(Cc3nc(-c4ccc(N5CCC(C)CC5)nc4)no3)CC2)c1` is 1270 s; for `COc1ccc2nc(SCC(=O)N3CCC(C(N)=O)CC3)nc(C)c2c1` it is 626 s; for `CCCCc1ccc(NC(=O)Cn2cccc2-c2nc(-c3ccc4c(c3)OCO4)no2)cc1` it is 1260 s. Consider `CC[C@@]1(O)C[C@H](OC2CC(N(C)C)C(O)C(C)O2)c2c(cc3c(c2O)C(=O)c2c(O)ccc(O)c2C3=O)[C@H]1C(=O)OC` (some centres undefined), for which the RP-LC retention time was 717 s. `Nc1cc(C2CCN(C(=O)/C=C/c3ccccc3Cl)CC2)no1`: the RP-LC retention time turned out to be 747 s.

`Cn1nc(C(=O)N2CCCC2)c2c1CCN(C(=O)CCC(=O)N1CCN(c3ccccc3)CC1)C2` came in with an RP-LC retention time of 701 s. `Cc1ccc(OCC(=O)Nc2cnn(C)c(=O)c2N2CCCCC2)cc1`: the RP-LC retention time was 1070 s. In turn, `O=C(c1nnc(-c2ccc(S(=O)(=O)N3CCOCC3)cc2)o1)N1CCC2(CC1)OCCO2` yielded an RP-LC retention time of 730 s.

In turn, `CC(C)c1nnc(-c2cccnc2N2CCN(C(=O)C3CCCO3)CC2)o1` (centres undefined) registered an RP-LC retention time of 675 s. For `O=C(Cc1cccs1)N1CC(c2noc(C3CCCN3CC3CC3)n2)C1` (centres undefined) the value was 599 s; for `Cc1nc(C)c(C(=O)NCC23CCC=C2N(C)C(=O)CC3)s1` (centres undefined), 651 s. For `Clc1ccccc1N1CCN(c2ncnc3[nH]ncc23)CC1` the value was 660 s.

With `CNc1nc(Nc2ccccc2C)nc2ccccc12`, the RP-LC retention time is 664 s. The figure for `COc1cc(C(=O)Nc2nc3ccc4nc(SC)sc4c3s2)cc(OC)c1OC` is 1080 s; for `CC(C)n1cnnc1CC1CCN(C(=O)Nc2ccc3c(c2)OCCO3)CC1` it is 625 s. Consider `O=C(Nc1cccc(Br)c1)N1CCc2nc(-c3ccc(F)cc3)ncc2C1`, for which the RP-LC retention time came to 1060 s.

In turn, `CCN1CCN(c2ccc(NC(C)=O)cn2)C1=O` showed an RP-LC retention time of 567 s. With `O=C(Nc1cc(-c2ccncc2)no1)c1ccccc1`, the RP-LC retention time came out at 663 s.

As to `CC(=O)NCc1nc(-c2ccc(S(=O)(=O)N3CCC(C(=O)N4CCCC4)CC3)cc2)no1`, the RP-LC retention time is 639 s. Take `COc1ccccc1NC(=O)[C@H]1[C@H]2C=C[C@]3(CN(Cc4cccnc4)C(=O)[C@@H]13)O2`: the RP-LC retention time was determined as 597 s. As for `CCCc1noc(-c2cccnc2N2CCCN(Cc3ccc(F)cc3Cl)CC2)n1`, the RP-LC retention time amounted to 748 s. For `O=C1NCCCn2cc(S(=O)(=O)N3CCN(c4ccc(F)cc4)CC3)cc21`, the RP-LC retention time came to 730 s. Take `Cc1nn2c(CNS(=O)(=O)c3cccc(F)c3)c(-c3ccccc3)nc2s1`: the RP-LC retention time was 852 s. On to `CCc1nn2c(CNS(=O)(=O)c3ccc(C)cc3)c(-c3ccccc3)nc2s1`, for which the RP-LC retention time amounted to 973 s. For the compound `CC1(C(=O)Nc2cccc(F)c2)CCCCC(=O)N1` (centres undefined), the RP-LC retention time was 694 s. The figure for `O=C(Cn1c(=O)cc(-c2nc(C3CC3)no2)c2ccccc21)Nc1ccccc1` is 937 s; for `CCc1cccc(C)c1Nc1c(-c2ccc(OC)cc2)nc2cnccn12` it is 873 s. For `Cc1ccc(N2CCN(C(=O)c3cn4c(n3)CCCC4)CC2)cc1` the value was 626 s; for `Cc1csc(NC(=O)CN2C(=O)C3CCCCN3c3ccc(S(=O)(=O)N(C)C)cc32)n1` (centres undefined), 853 s; for `Cc1nn(-c2cc(N3CCCC3)ncn2)c(C)c1CCC(=O)NCCc1ccco1`, 721 s. The figure for `Cc1cccc(-n2c(Cc3cccn3C)nnc2SCC(=O)NCC2CCCO2)c1C` (centres undefined) is 776 s. On to `Cc1oc(-c2[nH]ncc2C(=O)N(C)C)cc1S(=O)(=O)Nc1ccc(F)cc1Cl`, for which the RP-LC retention time was determined as 696 s. Consider `O=C(C1CCCN(c2ccc(N3CCOCC3)nn2)C1)N1CCN(c2ccccc2)CC1` (centres undefined), for which the RP-LC retention time was 635 s. Turning to `O=C(CN1C(=O)COc2ccc(C(=O)N3CCCC3)cc21)N1CCN(c2ccccn2)CC1`, the RP-LC retention time stood at 583 s. As for `COc1cccc(CNC(=O)C2=C3CCCN3c3ccc(Cl)cc3S2(=O)=O)c1`, the RP-LC retention time was determined as 898 s. For `Cc1cc(N2CCCC2)n2nc(CN3CCN(c4ccccc4F)CC3)nc2n1`, the RP-LC retention time was found to be 622 s.

In turn, `COC(=O)c1ccccc1NC(=O)N1CCN(Cc2nc(-c3cccc(Cl)c3)oc2C)CC1` displayed an RP-LC retention time of 809 s. `Cc1ccc(-c2nc3ccccn3c2CCC(=O)Nc2ccc(Br)cc2C)cc1` gave an RP-LC retention time of 770 s. `O=C(CCc1nc2ccccc2[nH]1)NCC1CCOCC1`: the RP-LC retention time is 555 s. `COC(=O)c1nc(NC(=O)Cn2nc3c(cc2=O)CCCC3)sc1C` had an RP-LC retention time of 710 s. With `O=C(c1ccoc1)N1CCN(c2cc(-c3ccccc3)[nH]n2)CC1`, the RP-LC retention time is 698 s.

Compound `Cc1[nH]c(C(=O)N2CCCC(C(=O)NCCCN3CCOCC3)C2)c(C)c1C(=O)OC(C)C` (centres undefined) returned an RP-LC retention time of 608 s. Compound `COC(=O)c1c(C)[nH]c(C(=O)N2CCC(CC(=O)NCCc3c[nH]c4ccc(Cl)cc34)CC2)c1C` gave an RP-LC retention time of 785 s. `CCOc1ccccc1-c1noc(-c2nnn(Cc3nc(-c4cccc(C)c4)oc3C)c2C)n1`: the RP-LC retention time is 1260 s. `CCOC(=O)Cc1c(C)nc2cc(-c3ccc(OC)cc3)nn2c1C` came in with an RP-LC retention time of 980 s. For the compound `Cc1ccc(NC(=O)C2CCCN(c3cn[nH]c(=O)c3)C2)cc1C` (centres undefined), the RP-LC retention time is 742 s. `O=C1OC2CC1N(C(=O)Cn1c(=O)oc3ccccc31)C2` (centres undefined) displayed an RP-LC retention time of 618 s. In the case of `Cc1ncsc1CN1CCCC(n2c(C)cnc2-c2cccnc2)C1` (centres undefined), the RP-LC retention time worked out at 527 s. For `O=C(NCc1ccco1)C1CC(=O)N(c2ccc3c(c2)CCN3C(=O)C2CC2)C1` (centres undefined) the value was 687 s; for `CCn1c(=O)n(CC(=O)NCCC(C)C)c(=O)c2cnc(-c3ccccc3)nc21`, 678 s. As for `CCn1ccc2oc(C)c(C(=O)NCc3ccccc3Br)c2c1=O`, the RP-LC retention time was found to be 1020 s. `COc1ccc2c(c1)c(CN1CCCCCCN(C)C(=O)[C@@H]3CCC[C@@H]31)cn2C` came in with an RP-LC retention time of 721 s. `CCCNC(=O)c1nnc(-c2ccc(S(=O)(=O)N3CCCC3)cc2)o1` came in with an RP-LC retention time of 824 s. As to `O=c1ccc(-c2ccc(F)cc2)nn1CCc1nc(-c2ccc(Cl)cc2)no1`, the RP-LC retention time was determined as 1060 s. For `CN1C(=O)CO[C@@H](C(=O)O)[C@@H]1c1ccccc1` the value was 621 s; for `CNC(=O)c1ccc2c(c1)CCN2C(=O)C(C)C`, 644 s; for `Cc1sc2cc(C(=O)O)[nH]c2c1C(=O)N1CCOCC1`, 622 s.

Regarding `CC(=O)Nc1ccc2cc3ccc(NC(C)=O)cc3nc2c1`, the RP-LC retention time was determined as 632 s. `CCN1CCN(C(=O)c2cn(-c3ccc(-c4nc(C(C)(C)C)no4)cn3)cn2)CC1` displayed an RP-LC retention time of 653 s. For `Cn1c(=O)n([C@H]2CCN(S(=O)(=O)c3ccccc3Cl)C2)c2ncccc21` the value was 840 s; for `Cc1cc(C)n(-c2ccnc(N3CCC(C(=O)N4CCC5(CC4)OCCO5)CC3)n2)n1`, 712 s; for `CC(C)NC(=O)c1ccccc1OCC1CCCN(C2CCC2)C1` (centres undefined), 606 s. `CCCNC(=O)C1CCN(c2ccc(SCC(=O)Nc3ccc4c(c3)OCCO4)nn2)CC1` yielded an RP-LC retention time of 626 s. As for `Cc1oc2c(c1C(=O)NCc1cccc(Br)c1)C1=NCCN1C=N2`, the RP-LC retention time came out at 654 s. Consider `CCc1nc(-c2ccc(-c3noc(COc4ccccc4)n3)cc2)cs1`, for which the RP-LC retention time is 1290 s.

The values are drawn from the METLIN SMRT retention time set (Domingo-Almenara et al. 2019).
